The source of these data is ChEMBL document CHEMBL1156297, “Sulfonamide linked neoglycoconjugates--a new class of inhibitors for cancer-associated carbonic anhydrases” (J Med Chem, 2010).

Among the targets are Carbonic anhydrase 2 (Homo sapiens, UniProt P00918); Carbonic anhydrase 1 (Homo sapiens, UniProt P00915); Carbonic anhydrase 12 (Homo sapiens, UniProt O43570); Carbonic anhydrase 9 (Homo sapiens, UniProt Q16790).
A short description of data set [1]: Permeability by PAMPA. Format: ADME. The settings on record: read-out: permeability. A general note: The PAMPA barrier holds no transporters, so it reflects passive diffusion.

Sequence of Carbonic anhydrase 1 (P00915 whole entry, the tested form may be a part): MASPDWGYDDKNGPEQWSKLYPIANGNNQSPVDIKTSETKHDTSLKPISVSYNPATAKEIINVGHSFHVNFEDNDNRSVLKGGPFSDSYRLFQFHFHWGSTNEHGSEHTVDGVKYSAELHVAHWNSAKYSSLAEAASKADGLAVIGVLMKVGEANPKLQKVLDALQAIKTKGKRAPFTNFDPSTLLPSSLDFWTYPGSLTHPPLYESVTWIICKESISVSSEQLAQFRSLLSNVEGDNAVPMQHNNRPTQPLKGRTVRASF
Sequence of Carbonic anhydrase 12 (O43570 whole entry, the tested form may be a part): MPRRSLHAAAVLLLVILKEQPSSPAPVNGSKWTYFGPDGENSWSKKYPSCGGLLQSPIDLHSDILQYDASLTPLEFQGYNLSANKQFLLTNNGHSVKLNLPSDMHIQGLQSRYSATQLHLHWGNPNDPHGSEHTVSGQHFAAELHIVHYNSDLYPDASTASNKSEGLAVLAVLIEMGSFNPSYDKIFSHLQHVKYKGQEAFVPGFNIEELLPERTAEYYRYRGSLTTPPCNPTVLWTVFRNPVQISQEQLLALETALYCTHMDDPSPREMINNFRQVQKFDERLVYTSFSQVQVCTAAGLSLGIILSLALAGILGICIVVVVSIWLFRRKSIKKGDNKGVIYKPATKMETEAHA

For orientation: Ki means the dissociation constant of the complex between target and ligand, obtained from inhibition or displacement. Low values mean higher affinity, high ones lower affinity. With `NS(=O)(=O)c1ccc(CNS(=O)(=O)[C@@H]2O[C@H](C(=O)O)[C@H](O)[C@H](O)[C@H]2O)cc1`, the Ki on Carbonic anhydrase 2 stood at 7.1 nM; at Carbonic anhydrase 1, 81 nM; on Carbonic anhydrase 12, 8.9 nM; on Carbonic anhydrase 9, 97 nM.
In the same order, the values of `NS(=O)(=O)c1ccc(CNS(=O)(=O)[C@@H]2O[C@H](CO)[C@@H](O[C@@H]3O[C@H](CO)[C@H](O)[C@H](O)[C@H]3O)[C@H](O)[C@H]2O)cc1` are 5 nM, 107 nM, 8.9 nM and 106 nM.
Regarding `CC(=O)OC[C@H]1O[C@@H](SNCc2ccc(S(N)(=O)=O)cc2)[C@H](OC(C)=O)[C@@H](OC(C)=O)[C@@H]1OC(C)=O`, the Ki was determined as 14.8 nM on Carbonic anhydrase 2, 4160 nM at Carbonic anhydrase 1 and 11.5 nM on Carbonic anhydrase 12.
As to `NS(=O)(=O)c1ccc(CNS(=O)(=O)[C@@H]2O[C@H](CO)[C@@H](O[C@H]3O[C@H](CO)[C@@H](O)[C@H](O)[C@H]3O)[C@H](O)[C@H]2O)cc1`, the Ki on Carbonic anhydrase 2 was 4.8 nM; on Carbonic anhydrase 1 it was 101 nM; on Carbonic anhydrase 12, 8.2 nM; at Carbonic anhydrase 9, 98 nM.
The corresponding values for `COC(=O)[C@H]1O[C@@H](S(=O)(=O)NCCc2ccc(S(N)(=O)=O)cc2)[C@H](OC(C)=O)[C@@H](OC(C)=O)[C@H]1OC(C)=O` are 62.7 nM, 3210 nM, 9.7 nM and 95 nM.
Take `NS(=O)(=O)c1ccc(CCNS(=O)(=O)[C@@H]2O[C@H](CO)[C@@H](O)[C@H](O)[C@H]2O)cc1`: the Ki is 7.8 nM on Carbonic anhydrase 2, 88 nM at Carbonic anhydrase 1, 7.6 nM at Carbonic anhydrase 12 and 84 nM on Carbonic anhydrase 9.
The corresponding values for `NS(=O)(=O)c1ccc(CCNS(=O)(=O)[C@@H]2O[C@H](CO)[C@H](O)[C@H](O)[C@H]2O)cc1` are 7.6 nM, 82 nM, 7.8 nM and 100 nM.
For `NS(=O)(=O)c1ccc(CCNS(=O)(=O)[C@@H]2O[C@H](C(=O)O)[C@H](O)[C@H](O)[C@H]2O)cc1`, the Ki on Carbonic anhydrase 2 amounted to 4.7 nM; at Carbonic anhydrase 1, 97 nM; at Carbonic anhydrase 12, 9.5 nM; at Carbonic anhydrase 9, 96 nM.
For `NS(=O)(=O)c1ccc(CCNS(=O)(=O)[C@@H]2O[C@H](CO)[C@@H](O[C@@H]3O[C@H](CO)[C@H](O)[C@H](O)[C@H]3O)[C@H](O)[C@H]2O)cc1`, the Ki on Carbonic anhydrase 2 was 4.6 nM; at Carbonic anhydrase 1, 78 nM; at Carbonic anhydrase 12, 9.1 nM; at Carbonic anhydrase 9, 100 nM.
The corresponding values for `NS(=O)(=O)c1ccc(CCNS(=O)(=O)[C@@H]2O[C@H](CO)[C@@H](O[C@H]3O[C@H](CO)[C@@H](O)[C@H](O)[C@H]3O)[C@H](O)[C@H]2O)cc1` are 5.2 nM, 102 nM, 7.3 nM and 81 nM.
`CC(=O)OC[C@H]1O[C@@H](S(=O)(=O)NCCc2ccc(S(N)(=O)=O)cc2)[C@H](OC(C)=O)[C@@H](OC(C)=O)[C@@H]1OC(C)=O`: the inhibitory constant (Ki) on Carbonic anhydrase 2 was found to be 15.4 nM; on Carbonic anhydrase 1 it was 90 nM; at Carbonic anhydrase 12 it was 9.5 nM.
In the same order, the values of `CC(=O)OC[C@H]1O[C@@H](S(=O)(=O)NCCc2ccc(S(N)(=O)=O)cc2)[C@H](OC(C)=O)[C@@H](OC(C)=O)[C@H]1OC(C)=O` are 73.8 nM, 4710 nM and 9.4 nM.
In the same order, the values of `CC(=O)OC[C@H]1O[C@@H](O[C@H]2[C@H](OC(C)=O)[C@@H](OC(C)=O)[C@H](SNCc3ccc(S(N)(=O)=O)cc3)O[C@@H]2COC(C)=O)[C@H](OC(C)=O)[C@@H](OC(C)=O)[C@H]1OC(C)=O` are 15.5 nM, 6830 nM and 9.8 nM.
The corresponding values for `CC(=O)OC[C@H]1O[C@@H](SNCc2ccc(S(N)(=O)=O)cc2)[C@H](OC(C)=O)[C@@H](OC(C)=O)[C@@H]1O[C@H]1O[C@H](COC(C)=O)[C@@H](OC(C)=O)[C@H](OC(C)=O)[C@H]1OC(C)=O` are 13.1 nM, 3460 nM and 8.5 nM.
As for `CC(=O)OC[C@H]1O[C@@H](SNCCc2ccc(S(N)(=O)=O)cc2)[C@H](OC(C)=O)[C@@H](OC(C)=O)[C@@H]1OC(C)=O`, the Ki was 14.5 nM at Carbonic anhydrase 2, 3890 nM at Carbonic anhydrase 1, 13.6 nM on Carbonic anhydrase 12 and 97 nM at Carbonic anhydrase 9.
In the same order, the values of `CC(=O)OC[C@H]1O[C@@H](SNCCc2ccc(S(N)(=O)=O)cc2)[C@H](OC(C)=O)[C@@H](OC(C)=O)[C@H]1OC(C)=O` are 13.3 nM, 4100 nM, 16.7 nM and 107 nM.
Take `COC(=O)[C@H]1O[C@@H](SNCCc2ccc(S(N)(=O)=O)cc2)[C@H](OC(C)=O)[C@@H](OC(C)=O)[C@H]1OC(C)=O`: the figures for the Ki at Carbonic anhydrase 2, at Carbonic anhydrase 1 and on Carbonic anhydrase 12 were 16.2 nM, 110 nM and 9.5 nM, respectively.
Turning to `NS(=O)(=O)c1ccc(CNS(=O)(=O)[C@@H]2O[C@H](CO)[C@@H](O)[C@H](O)[C@H]2O)cc1`, the figures for the Ki at Carbonic anhydrase 2, at Carbonic anhydrase 1 and on Carbonic anhydrase 12 were 9.1 nM, 102 nM and 8.3 nM, respectively. In addition, in data set [1], the Papp is < 0.05 ×10⁻⁶ cm/s.
As for `CC(=O)OC[C@H]1O[C@@H](O[C@H]2[C@H](OC(C)=O)[C@@H](OC(C)=O)[C@H](S(=O)(=O)NCc3ccc(S(N)(=O)=O)cc3)O[C@@H]2COC(C)=O)[C@H](OC(C)=O)[C@@H](OC(C)=O)[C@H]1OC(C)=O`, the Ki came to 58.8 nM on Carbonic anhydrase 2, 4930 nM on Carbonic anhydrase 1 and 10.4 nM at Carbonic anhydrase 12.
Consider `CC(=O)OC[C@H]1O[C@@H](S(=O)(=O)NCc2ccc(S(N)(=O)=O)cc2)[C@H](OC(C)=O)[C@@H](OC(C)=O)[C@@H]1O[C@H]1O[C@H](COC(C)=O)[C@@H](OC(C)=O)[C@H](OC(C)=O)[C@H]1OC(C)=O`, for which the values for the Ki at Carbonic anhydrase 2, on Carbonic anhydrase 1 and on Carbonic anhydrase 12 were 62.5 nM, 2040 nM and 9.1 nM, respectively.
The corresponding values for `NS(=O)(=O)c1ccc(CNS(=O)(=O)[C@@H]2O[C@H](CO)[C@H](O)[C@H](O)[C@H]2O)cc1` are 7.8 nM, 87 nM and 8.7 nM.
With `CC(=O)OC[C@H]1O[C@@H](O[C@H]2[C@H](OC(C)=O)[C@@H](OC(C)=O)[C@H](SNCCc3ccc(S(N)(=O)=O)cc3)O[C@@H]2COC(C)=O)[C@H](OC(C)=O)[C@@H](OC(C)=O)[C@H]1OC(C)=O`, the Ki at Carbonic anhydrase 2 came to 12 nM; at Carbonic anhydrase 1, 8040 nM; on Carbonic anhydrase 12, 8.7 nM; on Carbonic anhydrase 9, 97 nM.
The corresponding values for `CC(=O)OC[C@H]1O[C@@H](SNCCc2ccc(S(N)(=O)=O)cc2)[C@H](OC(C)=O)[C@@H](OC(C)=O)[C@@H]1O[C@H]1O[C@H](COC(C)=O)[C@@H](OC(C)=O)[C@H](OC(C)=O)[C@H]1OC(C)=O` are 15.1 nM, 6750 nM, 8.8 nM and 94 nM.
With `CC(=O)OC[C@H]1O[C@@H](SNCc2ccc(S(N)(=O)=O)cc2)[C@H](OC(C)=O)[C@@H](OC(C)=O)[C@H]1OC(C)=O`, the Ki worked out at 13.4 nM at Carbonic anhydrase 2, 120 nM at Carbonic anhydrase 1 and 15.5 nM at Carbonic anhydrase 12.
Take `COC(=O)[C@H]1O[C@@H](SNCc2ccc(S(N)(=O)=O)cc2)[C@H](OC(C)=O)[C@@H](OC(C)=O)[C@H]1OC(C)=O`: the Ki at Carbonic anhydrase 2 was 18.1 nM; at Carbonic anhydrase 1 it was 110 nM; at Carbonic anhydrase 12, 15.6 nM; at Carbonic anhydrase 9, 102 nM.
In the same order, the values of `CC(=O)OC[C@H]1O[C@@H](O[C@H]2[C@H](OC(C)=O)[C@@H](OC(C)=O)[C@H](S(=O)(=O)NCCc3ccc(S(N)(=O)=O)cc3)O[C@@H]2COC(C)=O)[C@H](OC(C)=O)[C@@H](OC(C)=O)[C@H]1OC(C)=O` are 56.2 nM, 3460 nM, 9.5 nM and 97 nM.
The corresponding values for `CC(=O)OC[C@H]1O[C@@H](S(=O)(=O)NCCc2ccc(S(N)(=O)=O)cc2)[C@H](OC(C)=O)[C@@H](OC(C)=O)[C@@H]1O[C@H]1O[C@H](COC(C)=O)[C@@H](OC(C)=O)[C@H](OC(C)=O)[C@H]1OC(C)=O` are 15.2 nM, 5570 nM, 8.8 nM and 93 nM.
Turning to `CC(=O)OC[C@H]1O[C@@H](S(=O)(=O)NCc2ccc(S(N)(=O)=O)cc2)[C@H](OC(C)=O)[C@@H](OC(C)=O)[C@@H]1OC(C)=O`, the Ki is 14.8 nM at Carbonic anhydrase 2, 120 nM on Carbonic anhydrase 1 and 9.3 nM on Carbonic anhydrase 12. In addition, the Papp in data set [1] was < 0.05 ×10⁻⁶ cm/s.
Take `CC(=O)OC[C@H]1O[C@@H](S(=O)(=O)NCc2ccc(S(N)(=O)=O)cc2)[C@H](OC(C)=O)[C@@H](OC(C)=O)[C@H]1OC(C)=O`: the results for the Ki at Carbonic anhydrase 2, on Carbonic anhydrase 1 and at Carbonic anhydrase 12 were 16.3 nM, 110 nM and 9.9 nM, respectively.
In the same order, the values of `COC(=O)[C@H]1O[C@@H](S(=O)(=O)NCc2ccc(S(N)(=O)=O)cc2)[C@H](OC(C)=O)[C@@H](OC(C)=O)[C@H]1OC(C)=O` are 65.8 nM, 2400 nM and 9.8 nM.
For the compound `CC(=O)Nc1nnc(S(N)(=O)=O)s1` [ACETAZOLAMIDE], the Papp in data set [1] was < 0.15 ×10⁻⁶ cm/s.
